These results are taken from US20180305458A1, “METHODS AND PHARMACEUTICAL COMPOSITIONS FOR THE TREATMENT OF AUTOIMMUNE INFLAMMATORY DISEASES” (INSERM (INSTITUT NATIONAL DE LA SANTÉ ET DE LA RECHERCHE …, priority 2015, published 2018).

Common to all, as to format: in vivo
The subject of assay [1] is IFNγ and IL-17 gene expression. Nature of the assay: Th1 (IFNγ) and Th17 (IL-17) cytokine gene expression in brain of EAE mice, RT-qPCR. As to conditions: 30 days after EAE induction, OxA 300 μg IP or RO, vs PBS. On the procedure: FIG. 4. […] It was determined 30 days after EAE induction of PBS, OxA300 RO, and OxA300 IP mice (from FIG. 2, panel C) by real time RT-qPCR as previously described (Proc Natl Acad Sci USA. 106(6):2012-7, 2009). *P<0.05 (nonparametric t-test, compared to PBS group).

For a further assay, the system named is DSS-induced colitis mice. Nature of the assay: DSS-induced colitis in mice, DAI score. Conditions: 5% DSS orally 7 days, OxA 0.22 μmoles/kg daily intraperitoneal, scale 0 to 4. From the text: FIG. 1. Orexin A ameliorates the DAI (weight and colitis score) of DSS-induced colitis mice. Mice were orally treated with 5% DSS for 7 days in the presence or in the absence of daily intraperitoneal injection of OxA (0.22 μmoles/kg). DAI score including weight loss, severity of diarrhea, the presence of blood in the stool, inflammation and edema was estimated using a scale ranging from 0 (no symptoms) to 4 (severe colitis). DSS, dextran sulfate sodium; WT, wild type mice.
Orexin A ameliorates the DAI (weight and colitis score) of DSS-induced colitis mice. As shown in FIG. 1 when DSS-induced colitis mice were treated with OxA, the DAI score was ameliorated (about of 1.5). […] Therefore, orexin A presents potent intrinsic anti-inflammatory properties, capable of modulating the Th/Treg homeostasis during an auto-immune response as aggressive as in a chronic EAE model.

For a further assay, the system named is regulatory T cell (Treg). In words: Regulatory T cells in draining lymph nodes of EAE mice, flow cytometry. Conditions: day 30 post-immunization, OxA 300 μg IP or RO, vs PBS. The procedure: FIG. 5. […] On day 30 post-immunization, draining lymph nodes were harvested from the naïve, PBS, OxA300 RO, and OxA300 IP groups (FIG. 2, panel C). Assessment by flow cytometry was performed by using the mouse regulatory T cell staining kit: lymph node Tregs were defined as CD4^+CD25^+Foxp3^+ cells and proliferative Tregs as CD4^+CD25^+Foxp3^+Ki67^+ cells.
Histograms represent the mean of the percentage (left) and the total number (right) of Tregs and proliferative Tregs (Ki67^+Tregs) for each group. Bars represent the mean+/−SEM of 5 individual mice. *P<0.05 (non parametric t-test, compared to PBS group).
On the technique in general: Flow cytometry measures light scatter and fluorescence of single cells or particles in a stream.

Assay [2] concerns chronic pancreatitis mice model induced by cerulein. Nature of the assay: Cerulein-induced chronic pancreatitis mice model. Conditions: OxA 1.40 μmol/Kg 2 ip injections/week. From the text:
FIG. 7. Pancreatic lymphocyte infiltration determined by immunostaining of CD45+ cells. Values were expressed as percentage of stained surface. **, p<0.01
FIG. 8. Amylase activity in blood samples of control mice, cerulein-induced mice and cerulein-induced mice treated with OxA. *, p<0.05; ***, p<0.001 and NS=non-significant.
We have investigated the effect of orexin A (OxA) on chronic pancreatitis mice model induced by supraphysiologic doses of cerulein (3 intraperitoneal injections/week at 100 μg/kg). […] In mice treated by OxA (2 intraperitoneal injections/week at 1.40 μmol/Kg) the lesions induced by cerulein improved. OxA-treated mice had lower number of acino-ductal metaplasia.

Assay [3] has as its system EAE mice (C57BL/6 wild-type). In words: EAE (MOG35-55 induced) clinical score in mice. As to conditions: orexin A 100 or 300 μg per mouse for 5 days, IP or retro-orbital, before onset or at moderate EAE score, scale 0-5. On the procedure:
FIG. 2. […] EAE was induced with 100 μg of MOG35-55 (Myelin Oligodendrocyte Glycoprotein 35-55) as previously described (Proc Natl Acad Sci USA. 106(6):2012-7, 2009) to 9 week old female C57BL/6 wild-type (WT) mice (n=10/group). Panels show clinical signs of EAE scored daily in a blinded fashion for over 30 days on a scale of 0-5 as follows: 0, no detectable clinical signs, 1, waddling gait with limp tail, 2, ataxia with full paralysis of one limb, 3, full paralysis of two limbs, 4, full paralysis of two limbs with important weight loss (>20% of initial weight) and 5, moribund or dead. Then, mice were given:
Panel A, intraperitoneally (IP) either PBS (group PBS IP), 100 μg of orexin A per mouse for 5 days on day 3 (=before the onset, group BOxA100 IP) or at a moderate EAE score (=1.5-2 for group OxA100 IP).
Panel B, intraperitoneally either PBS (group PBS), 100 μg (group OxA100 IP) or 300 μg (group OxA300 IP) of orexin A per mouse for 5 days at a moderate EAE score (=1.5-2).
Panel C, either PBS (group PBS), 300 μg of orexin A per mouse intraperitoneally (group OxA300 IP) or retro-orbitally (RO) (group OxA300 RO) for 5 days at a moderate EAE score (=1.5-2).
The EAE score is shown as mean+/−SEM. *P<0.05 (nonparametric t-test, compared to PBS group).
Orexin A ameliorates the DAI (weight and colitis score) of DSS-induced colitis mice. […]

The next assay relates to EAE mice spinal cord. In words: Spinal cord histopathology of EAE mice. As to conditions: 30 days post-immunization, OxA 300 μg IP or RO, grading 0-4, vs PBS. On the procedure: FIG. 3. […] 30 days post-immunization, mice (from the PBS, OxA300 RO, and OxA300 IP groups of FIG. 2, panel C) were sacrificed and spinal cords were harvested, fixed overnight in 4% paraformaldehyde and stored in 70% ethanol. Spinal cords were then embedded in paraffin and cut in […] section. After haematoxylin/eosin (to distinguish cell infiltration) and luxol fast blue (to label myelin) staining, photography was performed at ×1.25 and ×10 magnifications for the spinal cord sections of PBS, OxA300 RO and OxA300 IP mice. […] Histopathology grading was as follows: 0-normal appearance, 1—some infiltrated cells and low demyelination, 2—2 or 3 infiltrated areas and low demyelination, 3—numerous infiltrated areas and strong demyelination, 4—important cell infiltration throughout the tissue with strong demyelination. *P<0.05 (nonparametric t-test, compared to PBS group).

For the substance “Orexin A: neuropeptide, endogenous ligand of OX1R and OX2R; SEQ ID NO:2 peplpdccrqk tcscrlyell hgagnhaagi ltlx”, the “Th1/Th17 pro-inflammatory responses (IFNγ, IL-17 gene expression) in CNS tissues” value in assay [1] is recorded as “efficiently suppresses”; in assay [1] (listed as orexin A), “drastic reduction”. For the same substance, the “DAI score (weight and colitis score)” value with DSS-induced colitis mice was “ameliorates”; in the assay on DSS-induced colitis mice (listed as OxA), around 1.5. Besides, the “regulatory T cell (Treg) proportion” value with regulatory T cell (Treg) is “increased”; in the assay with regulatory T cell (Treg) (listed as orexin A) it was “increase”. Further, the “lesions induced by cerulein (pancreas histology)” value in assay [2] (3 weeks cerulein 100 μg/kg 3 ip injections/week) is recorded as “improved”. Further, the “amylase activity in blood samples” value in assay [2] (cerulein mice) is on record as “significantly reduced”. For the same substance, in assay [2] (cerulein mice), the “number of acino-ductal metaplasia” value is reported as “lower number”. Besides, the “pancreatic lymphocyte infiltration (anti-CD45 immunohistochemistry)” value in assay [2] (cerulein mice, quantitative imaging analysis, 18% in OxA-untreated mice) is 6 % of the pancreatic surface. Further, the “pancreatic fibrosis on Picrosirius staining” value in assay [2] (cerulein mice, quantitative imaging analysis, 40% in OxA-untreated mice) is recorded as 12 % of the pancreatic surface. The figures for the “clinical features of EAE (EAE score)” value in assay [3] and in assay [3] (listed as orexin A) were “dramatically alleviate” and “significantly ameliorated”, respectively. Also, the “histopathological EAE score” value in the assay on EAE mice spinal cord was “significantly decreases”; with EAE mice spinal cord (listed as orexin A), “drastic reduction”.
